Source: patent US20040072842A1 (published 2004)

| Structure (SMILES) | melting point [°C] |
| --- | --- |
| O=C(COCc1ccccc1)N1CCN(c2ccc(N3C[C@H](CNC(=S)C(F)F)OC3=O)cc2)CC1 | 166 to 168 |
| O=C(CO)N1CCC(c2ccc(N3C[C@H](CNC(=S)C(F)F)OC3=O)cc2F)CC1 | 151 to 152 |
